Experimental data taken from patent US9983218B2, “Indole and indoline derivatives and methods of use thereof” (AbbVie Inc., priority 2008, dated 2018).

Tested on: SK-N-SH human neuroblastoma cells
Test: Serum deprivation/JC-1 mitochondrial membrane potential (MMP) assay
Type: cell-based
Conditions: Homo sapiens; for Emax: SK-N-SH, percent maximal intensity in JC-1 ratio normalized to 10 μM dimebolin, read-out: JC-1 max %; for EC50: SK-N-SH cells, serum deprivation ~18 hours, JC-1 ratio normalized to peak value for 10 μM dimebolin, single curve fit to mean data of n=2-3, read-out: EC50
Method: SK-N-SH human neuroblastoma cells obtained from American Type Culture Collection (Rockville, Md.) were maintained in the log phase of growth in Minimal Essential Media (MEM), 10% heat inactivated fetal calf serum and 100 units/mL antibiotic-antimycotic (AA). Cells were cultured and maintained in a humidified incubator at 37° C. under 5% CO2 and 95% air. Cells were trypsinized (0.25%) and subcultured every 3 days and used from 15-18 passages. All cell culture supplies were obtained from Invitrogen (Carlsbad, Calif.).
SK-N-SH cells were plated 2-3 days in advance at a concentration of 50,000 cells/well onto collagen coated black-walled 96 well plates (Becton-Dickinson, Bedford, Mass.) in a total volume of 200 μL. On day of experimental treatment, the media containing serum was aspirated from each well and rinsed once with MEM/1% AA without serum. The cells then were incubated overnight in 100 μL of MEM/1% AA (no serum) with and without dimebolin or novel chemical entities overnight for ˜18 hours. The following day, JC-1 dye (5,5′,6,6′-tetrachloro-1,1′,3,3′-tetraethylbenzimidazolcarbocyanide) was diluted 1:10 into MEM media according to the JC-1 Mitochondrial Membrane Potential Assay Kit: (Cayman Chemical Company, Ann Arbor, Mich.) and then 10 μL of the JC-1 dye solution was added to each well. The plates were centrifuged for 5 minutes at 400×g at room temperature followed by 35 minute incubation at 37° C. The plates were washed twice with 200[…] μL of provided Assay Buffer followed an addition of 100 μL of Assay Buffer to each well. The plates were read with an excitation and emission of 560 nm and 595 nM for red fluorescence and with an excitation and emission of 485 nm and 535 nM for green fluorescence to determine the final JC-1 value taking the red to green fluorescence ratio. This assay is based on change in mitochondrial membrane potential (MMP) using this lipophilic cationic dye, JC-1, by monitoring the changes in the ratio of red to green fluorescence as the MMP depolarizes. This change in MMP reflects the health of the cell with healthy, viable cells have a high JC-1 ratio and high MMP whereas apoptotic, unhealthy cells have a low JC-1 ratio or low MMP.
For the ability of compounds to reverse the stress due to serum deprivation and increase the JC-1 ratio, the percent maximal intensity in JC-1 ratio was normalized to that induced by the peak value for 10 μM dimebolin and plotted against the compound concentration to calculate EC50 values and to control for plate-to-plate variability. Concentration-response data were analyzed using GraphPad Prism (San Diego, Calif.); the EC50 values were derived from a single curve fit to the mean data of n=2-3, in duplicates.
All compounds were dissolved in dimethyl sulfoxide at 10 mM stock solutions and tested at a concentration that the dimethyl sulfoxide levels never exceeded 1%.

SMILES	Emax	EC50
Cc1ccc(/C=C/n2c3c(c4cc(F)ccc42)CN2CCC3CC2)cn1 [Example 162, 9-fluoro-6-[(E)-2-(6-methylpyridin-3-yl)vinyl]-3,4,5,6-tetrahydro-1H-2,5-ethanoazepino[4,3-b]indole]	205%	17 µM
Fc1ccc(CCn2c3c(c4cc(F)ccc42)CN2CCC3CC2)cc1 [Example 163, 9-fluoro-6-[2-(4-fluorophenyl)ethyl]-3,4,5,6-tetrahydro-1H-2,5-ethanoazepino[4,3-b]indole]	140%	4.03 µM
Fc1ccc2c(c1)c1c(n2Cc2ccc(Cl)nc2)C2CCN(CC2)C1 [Example 164, 6-[(6-chloropyridin-3-yl)methyl]-9-fluoro-3,4,5,6-tetrahydro-1H-2,5-ethanoazepino[4,3-b]indole]	197%	4.95 µM
Fc1ccc2c(c1)c1c(n2Cc2coc(-c3ccccc3)n2)C2CCN(CC2)C1 [Example 173, 9-fluoro-6-[(2-phenyl-1,3-oxazol-4-yl)methyl]-3,4,5,6-tetrahydro-1H-2,5-ethanoazepino[4,3-b]indole]	120%	6.15 µM
Clc1ccc(CCn2c3c(c4cc(Br)ccc42)CN2CCC3CC2)cc1 [Example 174, 9-bromo-6-[2-(4-chlorophenyl)ethyl]-3,4,5,6-tetrahydro-1H-2,5-ethanoazepino[4,3-b]indole]	105%	5.48 µM
Cc1ccc(CCn2c3c(c4cc(OC(F)(F)F)ccc42)CN2CCC3CC2)cn1 [Example 178, 6-[2-(6-methylpyridin-3-yl)ethyl]-9-(trifluoromethoxy)-3,4,5,6-tetrahydro-1H-2,5-ethanoazepino[4,3-b]indole]	192%	4.17 µM
CC1CCC(CCn2c3c(c4cc(OC(F)(F)F)ccc42)CN2CCC3CC2)CN1 (stereo not shown) [Example 179, 6-[2-(6-methylpiperidin-3-yl)ethyl]-9-(trifluoromethoxy)-3,4,5,6-tetrahydro-1H-2,5-ethanoazepino[4,3-b]indole]	116%	5.69 µM
Cc1ccc(/C=C\n2c3c(c4cc(S(C)(=O)=O)ccc42)CN2CCC3CC2)cn1 [Example 181, 6-[(Z)-2-(6-methylpyridin-3-yl)vinyl]-9-(methylsulfonyl)-3,4,5,6-tetrahydro-1H-2,5-ethanoazepino[4,3-b]indole]	103%	7.89 µM
Cc1ccc(CCn2c3c(c4cc(S(C)(=O)=O)ccc42)CN2CCC3CC2)cn1 [Example 182, 6-[2-(6-methylpyridin-3-yl)ethyl]-9-(methylsulfonyl)-3,4,5,6-tetrahydro-1H-2,5-ethanoazepino[4,3-b]indole]	60%	9.28 µM
Fc1ccc2c(c1)c1c(n2Cc2ccc(C(F)(F)F)nc2)C2CCN(CC2)C1 [Example 183, 9-fluoro-6-{[6-(trifluoromethyl)pyridin-3-yl]methyl}-3,4,5,6-tetrahydro-1H-2,5-ethanoazepino[4,3-b]indole]	172%	8.97 µM
Fc1ccc2c(c1)c1c(n2Cc2ccccn2)C2CCN(CC2)C1 [Example 184, 9-fluoro-6-(pyridin-2-ylmethyl)-3,4,5,6-tetrahydro-1H-2,5-ethanoazepino[4,3-b]indole]	175%	10.7 µM
Fc1ccc2c(c1)c1c(n2Cc2cccnc2)C2CCN(CC2)C1 [Example 185, 9-fluoro-6-(pyridin-3-ylmethyl)-3,4,5,6-tetrahydro-1H-2,5-ethanoazepino[4,3-b]indole]	184%	8.58 µM
Fc1ccc2c(c1)c1c(n2Cc2ccncc2)C2CCN(CC2)C1 [Example 186, 9-fluoro-6-(pyridin-4-ylmethyl)-3,4,5,6-tetrahydro-1H-2,5-ethanoazepino[4,3-b]indole]	93%	14.6 µM
c1ccc(Cn2c3c(c4ccccc42)CN2CCC3CC2)nc1 [Example 187, 6-[(pyridin-2-yl)methyl]-3,4,5,6-tetrahydro-1H-2,5-ethanoazepino[4,3-b]indole]	110%	9.37 µM
c1cncc(Cn2c3c(c4ccccc42)CN2CCC3CC2)c1 [Example 188, 6-(pyridin-3-ylmethyl)-3,4,5,6-tetrahydro-1H-2,5-ethanoazepino[4,3-b]indole]	96%	6.52 µM
c1ccc2c(c1)c1c(n2Cc2ccncc2)C2CCN(CC2)C1 [Example 189, 6-[(pyridin-4-yl)methyl]-3,4,5,6-tetrahydro-1H-2,5-ethanoazepino[4,3-b]indole]	107%	11.3 µM
FC12CC3CC(CN(C3)C1)c1c2c2ccccc2n1Cc1ccc(Cl)nc1 (stereo not shown) [Example 190, 8-[(6-chloropyridin-3-yl)methyl]-1-fluoro-1,4,5,6,7,8-hexahydro-2H-1,5:3,7-dimethanoazonino[5,4-b]indole]	175%	5.06 µM
Fc1ccc2c(c1)c1c(n2Cc2ccnc(F)c2)C2CCN(CC2)C1 [Example 191, 9-fluoro-6-[(2-fluoropyridin-4-yl)methyl]-3,4,5,6-tetrahydro-1H-2,5-ethanoazepino[4,3-b]indole]	112%	7.04 µM
Cc1ccc2c(c1)c1c(n2CCc2ccc(Cl)nc2)C2CC3CC1CN(C3)C2 (stereo not shown) [Example 196, 8-[2-(6-chloropyridin-3-yl)ethyl]-11-methyl-1,4,5,6,7,8-hexahydro-2H-1,5:3,7-dimethanoazonino[5,4-b]indole]	182%	3.91 µM
Cc1ccc2c(c1)c1c(n2CCc2ccccc2C)C2CC3CC1CN(C3)C2 (stereo not shown) [Example 197, 11-methyl-8-[2-(2-methylphenyl)ethyl]-1,4,5,6,7,8-hexahydro-2H-1,5:3,7-dimethanoazonino[5,4-b]indole]	173%	5.63 µM
Cc1ccc2c(c1)c1c(n2CCc2ccc(C)nc2)C2CCCN(C1)C2 (stereo not shown) [Example 202, 10-methyl-7-[2-(6-methylpyridin-3-yl)ethyl]-1,3,4,5,6,7-hexahydro-2,6-methanoazocino[4,3-b]indole]	239%	3.07 µM
Cc1ccc2c(c1)c1c(n2CCc2ccccc2C)C2CCCN(C1)C2 (stereo not shown) [Example 203, 10-methyl-7-[2-(2-methylphenyl)ethyl]-1,3,4,5,6,7-hexahydro-2,6-methanoazocino[4,3-b]indole]	159%	4.53 µM
Cc1ccc2c(c1)c1c(n2CCc2ccc(Cl)cc2)C2CCCN(C1)C2 (stereo not shown) [Example 204, 7-[2-(4-chlorophenyl)ethyl]-10-methyl-1,3,4,5,6,7-hexahydro-2,6-methanoazocino[4,3-b]indole]	182%	3.23 µM
Cc1ccc2c(c1)c1c(n2S(=O)(=O)c2ccc(Cl)cc2)C2CCN1CC2 [Example 215, 5-[(4-chlorophenyl)sulfonyl]-8-methyl-2,3,4,5-tetrahydro-1,4-ethanopyrido[3,2-b]indole]	196%	3.34 µM
Cc1ccc2c(c1)c1c(n2-c2ccc3ccncc3c2)C2CCN(CC2)C1 [Example 216, 6-isoquinolin-7-yl-9-methyl-3,4,5,6-tetrahydro-1H-2,5-ethanoazepino[4,3-b]indole]	284%	4.2 µM
Cc1ccc2c(c1)c1c(n2-c2ccc3ncccc3c2)C2CCN(CC2)C1 [Example 217, 9-methyl-6-quinolin-6-yl-3,4,5,6-tetrahydro-1H-2,5-ethanoazepino[4,3-b]indole]	182%	2.94 µM
